Laboratory results published in patent US20150044144A1, “DISINFECTANT SOLUTION” (RAYMAT MATERIALS, INC., priority 2012, published 2015).

Assay: Screening stability of different colorants with ORP by UV-Vis
Details: 300 ppm colorant; for Colour / UV-vis stability of colorant in ORP solution: 25° C., vs control water solution

## COc1cc(S(=O)(=O)[O-])c(C)cc1N=Nc1c(O)ccc2cc(S(=O)(=O)[O-])ccc12.[Na+].[Na+] [Food dye FD&C red 40]
High and low FAC ORP solutions, after 10 days
  UV-visible absorbance of the colored ORP solution: decreased significantly

## O=C([O-])c1ccccc1-c1c2cc(Br)c(=O)c(Br)c-2oc2c(Br)c([O-])c(Br)cc12.[Na+].[Na+] [Eosine YS Acid Red 87 D&C red 22]
High concentration ORP (100 ppm FAC)
  Colour / UV-vis stability of colorant in ORP solution: the red color disappeared quickly

## O=C1OC2(c3ccccc31)c1cc(Br)c(O)c(Br)c1Oc1c2cc(Br)c(O)c1Br [Eosine Free Acid Solvent Red 43 D&C red 21]
Low concentration ORP (30 ppm FAC)
  Colour / UV-vis stability of colorant in ORP solution: the red color disappeared quickly
